Read-outs that look alike come from different tables or passages of the source.

“tert-Butyl ((4R,10R)-10-(benzyloxy)-4-methyl-25,10-bis(trifluoromethyl)-3-oxa-1(2,5)-oxadiazola-2(2,6)-pyridinacyclodecaphane-23-yl)carbamate”: the ring closure, isolated yield (ether bond, 14-membered ring, PPh3/DIAD, toluene, 30.2 mM) was 52%.

`C[C@@H]1C/C=C\CCC(OCc2ccccc2)(C(F)(F)F)C2=NN=C(O2)c2nc(c(C(F)(F)F)cc2NC(=O)OC(C)(C)C)O1` (stereo partly drawn) had a ring closure, isolated yield (from C[C@H](CC[P+](c1ccccc1)(c1ccccc1)c1ccccc1)Oc1nc(-c2nnc(C(CCC=O)(OCc3ccccc3)C(F)(F)F)o2)c(N(C(=O)OC(C)(C)C)C(=O)OC(C)(C)C)cc1C(F)(F)F, other bond, 14-membered ring, NaOtBu, THF, 11.2 mM) of 50%.

Turning to `C[C@H]1CCCCC[C@](O)(C(F)(F)F)C(=O)NNC(=O)c2nc(c(C(F)(F)F)cc2NC(=O)OC(C)(C)C)O1`, under “from C[C@@H](CCCCC[C@@](O)(C(=O)O)C(F)(F)F)Oc1nc(C(=O)NN)c(NC(=O)OC(C)(C)C)cc1C(F)(F)F, amide bond, 15-membered ring, HATU/DIEA, DMF (DIEA added in 2-MeTHF), 21.9 mM”, the ring closure, isolated yield was 15%.

The values are drawn from patent US20250320226.
